“Also recorded” adds a separate entry of the source.
Experiments:
[1] = test system: patients with COVID-19 respiratory disease; experiment: Phase 2 trial of LYT-100 in post-acute COVID-19 respiratory disease: tolerability; type: in vivo, human; details: COVID-19 study
Description: An initial dosage of 500 mg BID was given the first 3 days of dosing, followed by 750 mg BID thereafter.

CYP2C19 = target: T1, CYP2C19 (Homo sapiens, UniProt P33261); experiment: In vitro stability with recombinant human CYP2C19; type: in vitro ADME; details: recombinant human isozyme; read-out: t1/2 following incubation with CYP2C19 (converted)
T1 construct: host or cells: heterologous cell systems (not specified)
Description: The half-life (t½) of each test article was determined.

[2] = test system: rat BLM induced lung fibrosis model; experiment: Rat bleomycin induced lung fibrosis model, Phase II (efficacy); details: bleomycin rats, LYT-100 400 mg/kg QD / nintedanib 60 mg/kg BID
Description: (§1) For Groups 4, 5, 6, and 7, bleomycin and vehicle dosing were conducted as indicated in Table 28 (0.45 mg/kg, at 1696 IU/mg of Bleomycin or saline on Day 1, 2, 3, 6 and 7).

clinical = details: both sexes, human, in vivo, 550 mg
Description: Over-encapsulation was utilized to maintain study blind. […] Approximately 50 older healthy female and male adult subjects (1:1 ratio) were randomized into 1 of 2 cohorts:Cohort 1 or Cohort 2, N=˜25 subjects per cohort.
There was a single AM fasting dose on Day 4 for both drugs. There was a 6-day wash-out period between drug cross-over.
Subjects were discharged on Day 4 following successful completion of all assessments and at the Investigator's discretion.
Subjects were then administered a single dose of their randomized treatment on the morning of Day 14 following an overnight fast of at least 8 hours. Subjects were discharged on Day 14 following successful completion of all assessments and at the Investigator's discretion.
An evening snack was served ≥3 hours following evening study medication administration. On Day 4 (Treatment Period 1) and Day 14 (Treatment Period 2), subjects were administered their assigned study drug once in the morning following an overnight fast of at least 8 hours (with approximately 240 mL of non-carbonated water). No additional fluids were allowed during the 1 hour pre- and post-dose.
Blood samples for PK were collected for Cohorts 1 and 2 at specified times during both periods, as follows: • Days 1 & 11:0 (pre-morning dose) • Days 2 & 12: no sampling. • Days 3 & 13:0 (pre-morning dose), and 1, 2, 3, 4, 6 (pre-mid-day dose), 7, 8, 9, 10, 12 (pre-evening dose), 13, 14, 15, 16, and 17 hours post-morning dose • Days 4 & 14:0 (pre-morning dose), and 1, 2, 3, 4, 6 (post-dose),

[3] = test system: rat BLM induced lung fibrosis model; details: in vivo, 400 mg/kg
Description: as §1

[4] = test system: patients with Idiopathic Pulmonary Fibrosis (IPF); experiment: IPF trial Part A: safety and tolerability (TEAEs, AESI, dose modifications, discontinuations); type: in vivo
Description: The primary objective was to determine the dose(s) to carry into Phase 3. […] Patients were randomized to one of the four treatments in a 1:1:1:1 ratio and stratified based on prior exposure to nintedanib (<6 months) versus nintedanib-naïve patients. Patients who completed the Double-blind Treatment Period (Part A) were offered participation in the Long-term Extension (Part B). […] For patients who participated in Part B, the follow-up was conducted at the end of Part B. A graphical illustration of an embodiment of the trial design is provided as FIG. 24B.
Safety endpoints included: Adverse events, concomitant medications, clinical laboratory findings (chemistry, hematology, urinalysis), physical examinations, ECGs, and vital signs. These will be summarized descriptively, where appropriate.
Tolerability endpoints included: Frequency of dose modifications (reductions and interruptions), time to first dose modification, (reduction or interruption), duration of adverse events of special interest, time to treatment discontinuation due to an adverse event of special interest and patient reported assessment of IPF symptoms, side-effects, severity, change and satisfaction.
In this study, AEs are reported for all patients from the time of consent until the completion of the Follow-up visit. AEs reported prior to the first dose are denoted as pre-treatment. SAEs are reported for all patients (randomized or not) from the time of consent. AEs reported from the time of consent to confinement on Day 0 were recorded as pre-treatment AEs.
Treatment emergent adverse events (TEAEs) are defined as an AE that occurs following first dose of study medication and were evaluated from the first administration of study drug on Day 1 until the Follow-up visit. […]
This study evaluated in particular the tolerability based on prioritized gastrointestinal adverse events (GI AEs). […]

[5] = LYT-100 500 mg BID 3 days then 750 mg BID

T1 sequence (P33261 whole entry): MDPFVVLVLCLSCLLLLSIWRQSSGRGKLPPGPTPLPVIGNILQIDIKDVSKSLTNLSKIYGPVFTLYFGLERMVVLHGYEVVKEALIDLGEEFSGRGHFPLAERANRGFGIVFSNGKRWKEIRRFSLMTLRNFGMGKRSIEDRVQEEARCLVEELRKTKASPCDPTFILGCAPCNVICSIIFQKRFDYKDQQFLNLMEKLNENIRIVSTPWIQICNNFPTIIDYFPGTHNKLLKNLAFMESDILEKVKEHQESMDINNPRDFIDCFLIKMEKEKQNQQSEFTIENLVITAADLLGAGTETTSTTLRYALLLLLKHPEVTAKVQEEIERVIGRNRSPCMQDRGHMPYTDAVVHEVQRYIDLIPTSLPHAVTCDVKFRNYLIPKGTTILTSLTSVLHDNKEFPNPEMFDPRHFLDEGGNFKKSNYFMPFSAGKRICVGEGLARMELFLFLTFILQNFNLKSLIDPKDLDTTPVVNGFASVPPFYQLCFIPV

[2H]C([2H])([2H])c1ccc(=O)n(-c2ccccc2)c1 [LYT-100, 5-(methyl-d3)-1-phenylpyridin-2-(1H)-one]
drug-related serious adverse events or deaths [1]: no drug-related serious adverse events (SAEs) or deaths
discontinuation rate due to AEs at least possibly related [1, 5]: 8.6%
dizziness, AE at least possibly related, incidence [1, 5]: 3.3%
fatigue, AE at least possibly related, incidence [1, 5]: 2.2%
headache, AE at least possibly related, incidence [1, 5]: 4.3%
nausea, AE at least possibly related, incidence [1, 5]: 8.7%
rash, AE at least possibly related, incidence [1, 5]: 3.3%
Dyspepsia, treatment emergent AE, events ([1]; LYT-100 750 mg BID): 6 Events
Dyspepsia, treatment emergent AE, subjects ([1]; LYT-100 750 mg BID): 6 (6.5) N (%)
Headache, treatment emergent AE, events ([1]; LYT-100 750 mg BID): 5 Events
Headache, treatment emergent AE, subjects ([1]; LYT-100 750 mg BID): 5 (5.4) N (%)
Increase in Fibrin D Dimer, treatment emergent AE, events ([1]; LYT-100 750 mg BID): 6 Events
Increase in Fibrin D Dimer, treatment emergent AE, subjects ([1]; LYT-100 750 mg BID): 5 (5.4) N (%)
Nasopharyngitis, treatment emergent AE, events ([1]; LYT-100 750 mg BID): 7 Events
Nasopharyngitis, treatment emergent AE, subjects ([1]; LYT-100 750 mg BID): 6 (6.5) N (%)
Nausea, treatment emergent AE, events ([1]; LYT-100 750 mg BID): 10 Events
Nausea, treatment emergent AE, subjects ([1]; LYT-100 750 mg BID): 8 (8.7) N (%)
Upper abdominal pain, treatment emergent AE, events ([1]; LYT-100 750 mg BID): 6 Events
Upper abdominal pain, treatment emergent AE, subjects ([1]; LYT-100 750 mg BID): 5 (5.4) N (%)
half-life (CYP2C19): 3.67 h
hydroxyproline content (μg per mg of wet lung) vs bleomycin/vehicle ([2]; Day 8-27): reduced the hydroxyproline content; also recorded: reduced lung hydroxyproline content
lung fibrosis scores (histopathology) vs bleomycin/vehicle ([2]; Day 8-27): did not affect the fibrosis scores
lung sections with fibrosis Score 1 ([2]; Day 8-27): 33%
lung sections with fibrosis Score 2 ([2]; Day 8-27): 36%
mean lung weight vs bleomycin/vehicle ([2]; Day 8-27): did not affect mean lung weight
median lung fibrosis scores vs bleomycin/vehicle ([2]; Day 8-27): reduced median fibrosis scores
total left lung hydroxyproline (μg per left lung) vs bleomycin/vehicle ([2]; Day 8-27): did not affect total hydroxyproline levels
body weight gain ([2]; oral gavage Day 8-27): resumed and at a rate similar to Group 4; also recorded: did not negatively affect body weight developments
AUC(0-t) (clinical; AUC0-24, parent): 34100 ng·h/mL
Cmax (clinical; Cmax, parent): 9170 ng/mL
tolerability [3]: well tolerated
Discontinued, Primary Reason: Death ([4]; 550 mg TID (N = 65)): 0 n (%)
Discontinued, Primary Reason: Death ([4]; 825 mg TID (N = 64)): 0 n (%)

From patent publication US12622899B2 (PureTech LYT 100, Inc., priority 2018, dated 2026)
